≈ marks a conversion by molar mass, not a printed value. Where “and” joins values, the source holds several entries; their conditions need not be identical. Equal values may be shown once.
Columns and labels:
[1] = test system: E. faecium ATCC 700221 (Efm 21); assay: MIC, broth microdilution, Efm 21; type: cell-based; settings: Enterococcus faecium, ATCC700221, Table 1, HT series; read-out: Minimum inhibitory concentration (MIC) Efm 21
Outline: (§1)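 Testing follows CLSI broth microdilution. Starting compound concentration is 64 μg/mL, diluted serially. MICs are determined in duplicate. Three independent experiments are done on different days.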

[2] = test system: B. subtilis ATCC 6633 (Bs); assay: MIC, broth microdilution, Bs; type: cell-based; settings: Bacillus subtilis, ATCC6633; Table 1, HT series; read-out: Minimum inhibitory concentration (MIC) Bs
Experimental: (§2) The broth microdilution method was utilized to determine MIC values of novel thiazole derivatives against different clinically important Gram-positive bacteria according to the guidelines outlined by the Clinical and Laboratory Standards Institute (CLSI) as reported in our recent papers.^1-5 The starting concentration of compounds for MIC determination was 64 μg/mL serially diluted down the wells and the MIC values were recorded in duplicates in three independent experiments on different days.

[3] = test system: S. aureus LAC MRSA (Sa LAC); assay: MIC, broth microdilution, Sa LAC; type: cell-based; settings: Staphylococcus aureus, Table 1, HT series, read-out: Minimum inhibitory concentration (MIC) Sa LAC
Experimental: as §2

[4] = test system: S. aureus subsp. aureus Rosenbach BAA-1717 (Sa USA 300); assay: MIC, broth microdilution, Sa USA 300; type: cell-based; settings: Staphylococcus aureus; Table 1, HT series; read-out: Minimum inhibitory concentration (MIC) SA USA 300
Outline: as §1

[5] = test system: S. aureus ATCC 33591 (Sa 91); assay: MIC, broth microdilution, Sa 91; type: cell-based; settings: Staphylococcus aureus, ATCC33591; Table 1, HT series; read-out: Minimum inhibitory concentration (MIC) Sa 91
Outline: as §1

[6] = test system: S. aureus ATCC BAA-2312 (Sa 12); assay: MIC, broth microdilution, Sa 12; type: cell-based; settings: Staphylococcus aureus, ATCCBAA2312; Table 1, HT series; read-out: Minimum inhibitory concentration (MIC) Sa 12
Outline: as §1

[7] = test system: S. epidermidis ATCC 700296 (Se); assay: MIC, broth microdilution, Se; type: cell-based; settings: Staphylococcus epidermidis, ATCC700296; Table 1, HT series; read-out: Minimum inhibitory concentration (MIC) Se
Outline: as §1

[8] = test system: S. aureus ATCC 25923 (Sa 23); assay: MIC, broth microdilution, Sa 23; type: cell-based; settings: replicates from different days separated by comma; for MIC: Staphylococcus aureus, ATCC25923, Table 1, HT series, read-out: Minimum inhibitory concentration (MIC) Sa 23; for Minimum inhibitory concentration (MIC) Sa 23: Table 1, HT series
Outline: as §1

[9] = test system: Sa UAMS-1 MRSA ATCC 49230 (Sa UAMS); assay: MIC, broth microdilution, Sa UAMS; type: cell-based, S. aureus; settings: Staphylococcus aureus; Table 1, HT series; read-out: Minimum inhibitory concentration (MIC) Sa UAMS
Outline: as §1

[10] = test system: S. aureus ATCC 700699 (Sa 99); assay: MIC, broth microdilution, Sa 99; type: cell-based; settings: replicates from different days separated by comma; for MIC: Staphylococcus aureus, ATCC700699, Table 1, HT series, read-out: Minimum inhibitory concentration (MIC) Sa 99; for Minimum inhibitory concentration (MIC) Sa 99: Table 1, HT series
Outline: as §1

[11] = test system: E. faecalis ATCC 51299 (Efs 99); assay: MIC, broth microdilution, Efs 99; type: cell-based; settings: Enterococcus faecalis, ATCC51299; Table 1, HT series; read-out: Minimum inhibitory concentration (MIC) Efs 99
Outline: as §1

[12] = test system: S. aureus ATCC 33592 (Sa 92); assay: MIC, broth microdilution, Sa 92; type: cell-based; settings: Staphylococcus aureus, ATCC33592; Table 1, HT series; read-out: Minimum inhibitory concentration (MIC) Sa 92
Outline: as §1

[13] = test system: E. faecalis ATCC 29212 (Efs 12); assay: MIC, broth microdilution, Efs 12; type: cell-based; settings: Table 1, HT series; replicates from different days separated by comma
Outline: as §1

[14] = test system: S. aureus subsp. aureus Rosenbach ATCC 25904 (SA Newman); assay: MIC, broth microdilution, SA Newman; type: cell-based; settings: Staphylococcus aureus; Table 1, HT series; read-out: Minimum inhibitory concentration (MIC) Sa Newman
Outline: as §1

Oc1ccc(-c2nc(-c3ccc(Br)cc3)cs2)cc1O [Compound 5, 4-(4-(4-bromophenyl)thiazol-2-yl)benzene-1,2-diol]
MIC [1]: 16 µg/mL (≈ 45.9 µM)
MIC [2]: 16 µg/mL (≈ 45.9 µM)
MIC [3]: 4 µg/mL (≈ 11.5 µM)
MIC [4]: 8 µg/mL (≈ 23 µM)
MIC [5]: 4 µg/mL (≈ 11.5 µM)
MIC [6]: 8 µg/mL (≈ 23 µM)
MIC [7]: 8 µg/mL (≈ 23 µM)
MIC [8]: 2 µg/mL (≈ 5.74 µM)
Minimum inhibitory concentration (MIC) Sa 23 [8]: 2, 2, 2 μg/mL
MIC [9]: 8 µg/mL (≈ 23 µM)
MIC [10]: 2 µg/mL (≈ 5.74 µM)
Minimum inhibitory concentration (MIC) Sa 99 [10]: 2, 2, 2 μg/mL
MIC [11]: 16 µg/mL (≈ 45.9 µM)
MIC [12]: 8 µg/mL (≈ 23 µM)
Minimum inhibitory concentration (MIC) Efs 12 [13]: 16 μg/mL (2×) and 2 μg/mL
MIC [14]: 4 µg/mL (≈ 11.5 µM)

Oc1ccc(-c2nc(-c3ccc(C(F)(F)F)cc3)cs2)cc1O [Compound 9, 4-(4-(4-(trifluoromethyl)phenyl)thiazol-2-yl)benzene-1,2-diol]
MIC [1]: 16 µg/mL (≈ 47.4 µM)
MIC [2]: 8 µg/mL (≈ 23.7 µM)
MIC [3]: 8 µg/mL (≈ 23.7 µM)
MIC [4]: 4 µg/mL (≈ 11.9 µM)
MIC [5]: 4 µg/mL (≈ 11.9 µM)
MIC [6]: 4 µg/mL (≈ 11.9 µM)
MIC [7]: 8 µg/mL (≈ 23.7 µM)
MIC [8]: 2 µg/mL (≈ 5.93 µM)
Minimum inhibitory concentration (MIC) Sa 23 [8]: 2, 2, 2 μg/mL
MIC [9]: 4 µg/mL (≈ 11.9 µM)
MIC [10]: 2 µg/mL (≈ 5.93 µM)
Minimum inhibitory concentration (MIC) Sa 99 [10]: 2, 2, 2 μg/mL
MIC [11]: 16 µg/mL (≈ 47.4 µM)
MIC [12]: 8 µg/mL (≈ 23.7 µM)
Minimum inhibitory concentration (MIC) Efs 12 [13]: 16 µg/mL and 2 µg/mL and 8 µg/mL
MIC [14]: 4 µg/mL (≈ 11.9 µM)

Oc1ccc(-c2nc(-c3cc(C(F)(F)F)cc(C(F)(F)F)c3)cs2)cc1O [Compound 10, 4-(4-(3,5-bis(trifluoromethyl)phenyl)thiazol-2-yl)benzene-1,2-diol]
MIC [1]: 8 µg/mL (≈ 19.7 µM)
MIC [2]: 8 µg/mL (≈ 19.7 µM)
MIC [3]: 2 µg/mL (≈ 4.93 µM)
MIC [4]: 4 µg/mL (≈ 9.87 µM)
MIC [5]: 2 µg/mL (≈ 4.93 µM)
MIC [6]: 2 µg/mL (≈ 4.93 µM)
MIC [7]: 8 µg/mL (≈ 19.7 µM)
MIC [8]: 2 µg/mL (≈ 4.93 µM)
Minimum inhibitory concentration (MIC) Sa 23 [8]: 1 µg/mL and 2 µg/mL
MIC [9]: 2 µg/mL (≈ 4.93 µM)
MIC [10]: 2 µg/mL (≈ 4.93 µM)
Minimum inhibitory concentration (MIC) Sa 99 [10]: 2, 2, 2 μg/mL
MIC [11]: 8 µg/mL (≈ 19.7 µM)
MIC [12]: 2 µg/mL (≈ 4.93 µM)
Minimum inhibitory concentration (MIC) Efs 12 [13]: 16 µg/mL and 2 µg/mL and 8 µg/mL
MIC [14]: 2 µg/mL (≈ 4.93 µM)

— patent US20250270199A1, “THIAZOLE DERIVATIVES AND METHODS OF USING THE SAME” (Arkansas State University - Jonesboro, priority 2022, published 2025)
